# Measured values from patent US11510928B2, “Use of mirtazapine in the treatment of inflammatory disorders, autoimmune disease and PBC” (UTI Limited Partnership, priority 2017, dated 2022).
# Columns and labels:
# [1] = test system: Con A-induced hepatitis; assay: Concanavalin A (Con A) hepatitis model of immune-mediated liver injury; type: in vivo, mouse; settings: for Con A-induced liver damage (plasma ALT levels): 1, 10, 20 mg/kg ip 1 hour before Con A
# Description: To determine whether mirtazapine treatment alters subsequent immune-mediated liver injury, we used the mouse model of concanavalin (Con A) hepatitis. The Con A model is a widely used and well characterized model of immune-mediated T cell-driven liver injury^16, 17. Mice were treated with mirtazapine 20 mg/kg ip and 1 hour later Con A (Sigma, St. Louis, Mo.) or PBS vehicle was injected intravenously at a dose of 13.5 mg/kg^17. Mice were sacrificed 16 hours following Con A administration and hepatitis determined biochemically (ALT) and histologically (H & E staining)^17, 18. In addition, to further characterize the effects of mirtazapine in the Con A model, we performed a mirtazapine dose response study with mirtazapine doses of 1, 10, and 20 mg/kg ip given 1 hour prior to Con A treatment.
# To assess liver injury, plasma alanine aminotransferase (ALT) activity was measured (Roche-Hitachi Modular-P800 apparatus; Roche, Mannheim, Germany). Additionally, formalin-fixed liver tissue slices were stained with Hematoxylin and Eosin (H&E) for microscopic examination. Extent of liver parenchymal necrosis was quantitated as previously described, using an Olympus XC10 camera (acquired using the Olympus VS-ASW software package; original magnification ×400). Images were later processed and selected images obtained at 25 or 50% magnification (corresponding to magnifications of 100x and 200X, respectively).
# Hepatic CXCL10/IP-10, CXCL9/MIG, ICAM-1 and VCAM-1 expression were determined using immunohistochemistry, as previously described. Briefly, following initial deparaffinization and rehydration of tissue sections, antigen retrieval was performed in lx Citrate buffer, PH 6.0 (Abcam) for IP-10/CXCL9 and MIG/CXCL9, or in 1X EDTA buffer pH 8.0 for ICAM1 and VCAM-1. In all cases slides were incubated in antigen retrieval buffer at 95-100° C. for 20 minutes. Endogenous peroxidase and endogenous biotin were blocked using 3% H2O2 and an avidin/biotin blocking kit (Vector Laboratories, Burlingame, Calif.) respectively, and then incubated with primary antibodies (Rabbit IgG polyclonal against MIG at 1:200; polyclonal goat IgG against IP-10/CXCL10 at 1:40; rat monoclonal against ICAM-1 clone YN1/1.7.4 at 1:200; and rabbit monoclonal against VCAM1 clone EPR5047 at 1:1000) overnight at 4° C. This was followed by incubation with biotinylated rabbit anti-goat, goat-anti rat or goat anti-rabbit secondary antibodies (at 1:150) for 1 hour at room temperature (Vector Labs). Negative staining controls were performed by omission of primary antibody, or by omission of both primary and secondary antibodies. […] This was followed by incubation with Vectastain Elite ABC kit (Vector Laboratories) for 30 min at room temperature. Color was developed with Nova Red Chromogen (ImmPACT NovaRED Peroxidase Substrate, Vector Lab, Burlingame, Calif.), after which sections were counterstained with hematoxylin (EMD Millipore). Mounted slides were converted to virtual slides with a BX61 VS virtual microscopy system equipped with an XC10 camera and VS ASW software (Olympus) (original magnification ×400). For ICAM-1, VCAM1, CXCL9/Mig, and CXCL10/IP10 expression, all scanned virtual slides of the sections were examined in a blinded fashion, and expression patterns evaluated and described.
# To delineate the effect of mirtazapine treatment on hepatic cytokine/chemokine expression a Luminex® assay was used using methods as previously described. Livers were collected 5 hours after mirtazapine or vehicle treatment. A panel of mouse cytokines/chemokines were simultaneously measured in liver homogenate samples using a mouse MILLIPLEX kit (Millipore, USA) according to the manufacturer's protocol. The multiplexing analysis was performed using the Luminex 100 system (Luminex®, USA; Eve Technologies Corporation, Calgary, Canada). Total protein concentrations in liver homogenates were quantified using a BCA Protein Assay kit (Pierce, USA) according to manufacturers instructions. […]
# [2] = test system: hepatic immune cells; assay: Hepatic immune cell phenotyping by flow cytometry after mirtazapine treatment; type: in vivo, mouse
# Description: Male 8-10 week old C57BL/6 mice (Jackson Labs, Bar Harbor, Me.) were used. All procedures were approved by the University of Calgary Animal Care Committee (protocol numbers AC14-0129 and AC14-0128) and were performed in accordance with the guidelines of the Canadian Council on Animal Care. To delineate the impact of mirtazapine treatment upon liver immune cell numbers and phenotype, and upon cytokine/chemokine networks within the liver, mice were treated with mirtazapine 1-20 mg/kg intraperitoneally^13-15. Mirtazapine was suspended in 1% aqueous solution of Tween 80, whereas the control group received 1% aqueous solution of Tween 80. […] The detailed experimental protocols, lists of antibodies and reagents used, flow cytometry gating, and immune cell phenotyping strategies, are described herein. […] Isolated hepatic leukocytes were subjected to direct immunofluorescence analyses using multicolor flow cytometry staining as previously described. Samples were acquired either using a FACScan flow cytometer (Becton Dickinson, Mountain View, Calif.) or AttuneTM Acoustic Focusing flow cytometer (Applied Biosytems, […], Burlington, ON). Data were analyzed using FlowJo® software (Treestar, Ashland, Oreg.). Gating proceeded as follows: gating of live cells and exclusion of duplet cells followed by gating on forward scatter (FSC) and side scatter (SSC) areas to identify regions appropriate to define live leukocytes. Within the leukocyte gate, the following cell subsets were identified: Regulatory T cells (CD4^+CD25^+Foxp3^+), monocytes (CD11b^+Ly6C^+), dendritic cells (CD11b^+CD11c^+), B Cells (CD3^-IgM^+), B1a B cells (IgM^+CD5^+CD^11b^+), B1b B cells (IgM^+CD5^-CD11b^+), and B2 B cells as (IgM^+CD5^-CD11b^-). Fluorescence-minus-one (FMO) controls were used for the accurate designation of cells with fluorescence above background levels. Appropriate isotype controls were used to determine the specificity of all antibodies used. Cell numbers were calculated based on the percentage of cells found in the gate of interest, and total cell numbers isolated from each liver.
# [3] = 20 mg/kg ip, 3 hrs post-treatment
compound,measurement,setting,value
CN1CCN2c3ncccc3Cc3ccccc3C2C1 (stereo not drawn) [Mirtazapine],"Histological liver damage (liver cell necrosis, H&E)","[1]; 20 mg/kg, 16 hrs post-Con A",only a minimal hepatocyte damage
same,Con A-induced liver damage (plasma ALT levels),[1]; 16 hrs post-Con A,markedly attenuated
same,Con A-induced liver damage (plasma ALT levels),"[1]; 16 hrs post-Con A, listed as mirtazapine",striking reduction in liver damage
same,Hepatic CXCL10 levels,"[1]; Con A treated mice, 20 mg/kg",significantly augmented
same,Hepatic IL-10 levels,"[1]; Con A treated mice, 20 mg/kg",significantly higher
same,Hepatic TNFα and IFNγ levels,"[1]; Con A treated mice, 20 mg/kg",significantly reduced
same,"Hepatic levels of IL-6, IL-9 and LIF","[1]; Con A treated mice, 20 mg/kg",significantly reduced
same,"Hepatic levels of the chemokines CXCL9, CXCL2, CXCL1, CCL11 and CCL2","[1]; Con A treated mice, 20 mg/kg",reduced
same,Con A-induced increases in ICAM-1 expression in hepatic central veins and sinusoidal endothelium,"[1]; IHC, 20 mg/kg",almost completely prevented
same,Con A-induced increases in hepatic VCAM-1 expression,"[1]; IHC, 20 mg/kg",minimal effect
same,Cellular expression levels of FOXP3 in hepatic Tregs (MFI),[2]; [3],enhanced cellular expression levels of FOXP3
same,Hepatic CD11b+CD11c+ dendritic cells as % of total CD11b+ cells,[2]; [3],relatively enriched
same,Numbers of Tregs (CD4+CD25+FOXP3+) within the liver,[2]; [3],significantly increased numbers of Tregs
same,Hepatic numbers of CD73 expressing T cells (CD3+CD73+),[2]; 5 hr (FIG. 11),increases hepatic numbers of CD73 expressing T cells
same,CXCR3+CD73+ B1a cells in the liver,[2]; 5 hrs post-treatment,significantly increased recruitment
same,Expression intensity of FOXP3 per cell (MFI),[2]; 5 hrs post-treatment,significantly increased
same,Hepatic B1a cells,[2]; 5 hrs post-treatment,significant increase
same,Hepatic B1b cells,[2]; 5 hrs post-treatment,remained unchanged
same,Hepatic B2 cells,[2]; 5 hrs post-treatment,decrease
same,Increase in hepatic numbers of CD4+CD25+FOXP3+ T cells (Tregs),[2]; 5 hrs post-treatment,~2 fold
same,Reduction of hepatic LY6Chi monocyte population,[2]; 5 hrs post-treatment,~2.5 fold
same,Total hepatic leukocyte numbers (CD45+),[2]; 5 hrs post-treatment,did not alter total overall hepatic leukocyte numbers
same,Total numbers of hepatic monocytes (CD11b+LY6C+),[2]; 5 hrs post-treatment,significant reduction
same,Hepatic numbers of repair monocytes (CD11b+Ly6Clow),[2]; 5 hrs post-treatment (FIG. 4H),significantly reduces
same,CXCL10 expression in hepatic monocytes and dendritic cells (MFI),"[2]; flow cytometry, vs vehicle",increased CXCL10 expression
same,Hepatic CD11b+Ly6Chi (inflammatory) monocytes,"[2]; pilot study, 20 mg/kg, 4 hrs",rapid striking reduction
same,Hepatic CD11b+Ly6Clo (anti-inflammatory/repair) monocyte numbers,"[2]; pilot study, 20 mg/kg, 4 hrs",no change
